# According to publication PMC8296573, “Synthesis and Biological Evaluation of Fingolimod Derivatives as Antibacterial Agents” (ACS Omega, 2021):
# Where two headings read alike, the source gives them in different places.
# Tests used:
# [1] = test system: S. aureus ATCC 25923; assay: Antibacterial activity, post-exposure on preformed 18-h-old biofilms; assay type: cell-based, Staphylococcus aureus; conditions: ± SD; for inhibition at 25 µM / inhibition at 50 µM / inhibition at 100 µM / inhibition at 200 µM: Staphylococcus aureus; for inhibition at 25 µM: ATCC25923, 25 µM; for inhibition at 50 µM: ATCC25923, 50 µM; for inhibition at 100 µM: ATCC25923, 100 µM; for inhibition at 200 µM: ATCC25923, 200 µM
# In short: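 Compounds were applied to preformed 18-h biofilms after medium change and left 24 h. Read-outs: planktonic OD plus resazurin fluorescence (20 μM), biofilm metabolic activity by resazurin 30 min at 37 °C, then biomass by crystal violet absorbance at 595 nm after ethanol fixation.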
# [2] = test system: S. aureus ATCC 25923; assay: Antibacterial activity, pre-exposure (planktonic cells and biofilm formation); assay type: cell-based, Staphylococcus aureus; conditions: for MIC / inhibition at 5 µM / inhibition at 10 µM / inhibition at 15 µM / inhibition at 25 µM: Staphylococcus aureus, ATCC25923; for inhibition at 5 µM / inhibition at 10 µM / inhibition at 15 µM / inhibition at 25 µM / Average inhibition %, biofilms viability / Average inhibition %, planktonic cells viability: pre-exposure, ± SD
# In short: (§1)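 Compounds are diluted in DMSO and plated, then bacteria are added to test prevention of growth and biofilm formation. After 18 h at 37 °C with shaking, planktonic OD and resazurin fluorescence are measured. Washed biofilms receive resazurin (30 min S. aureus, 60 min A. baumannii, 90 min P. aeruginosa, 37 °C), then crystal violet.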
# [3] = test system: P. aeruginosa ATCC 9027; assay: Antibacterial activity, pre-exposure; assay type: cell-based, Pseudomonas aeruginosa; conditions: for Average inhibition %, biofilms viability / Average inhibition %, planktonic cells viability / inhibition at 50 µM / inhibition at 100 µM / inhibition at 150 µM / inhibition at 200 µM: P. aeruginosa ATCC 9027, pre-exposure, ± SD; for inhibition at 50 µM / inhibition at 100 µM / inhibition at 150 µM / inhibition at 200 µM: Pseudomonas aeruginosa, ATCC9027
# In short: as §1
# [4] = test system: A. baumannii NCTC 13423; assay: Antibacterial activity, pre-exposure; assay type: cell-based, Acinetobacter baumannii; conditions: for Average inhibition %, biofilms viability / Average inhibition %, planktonic cells viability / inhibition at 10 µM / inhibition at 15 µM / inhibition at 25 µM / inhibition at 50 µM: A. baumannii NCTC 13423, pre-exposure, ± SD; for inhibition at 10 µM / inhibition at 15 µM / inhibition at 25 µM / inhibition at 50 µM: Acinetobacter baumannii, NCTC13423
# In short: as §1
# [5] = read-out: Average inhibition %, biofilms biomass
# [6] = read-out: Average inhibition %, planktonic cells turbidity
# [7] = 10 µM, read-out: Average inhibition %, biofilms biomass
# [8] = 10 µM, read-out: Average inhibition %, planktonic cells turbidity
# [9] = 15 µM, read-out: Average inhibition %, biofilms biomass
# [10] = 15 µM, read-out: Average inhibition %, planktonic cells turbidity
# [11] = 25 µM, read-out: Average inhibition %, biofilms biomass
# [12] = 25 µM, read-out: Average inhibition %, planktonic cells turbidity
# [13] = 50 µM, read-out: Average inhibition %, biofilms biomass
# [14] = 50 µM, read-out: Average inhibition %, planktonic cells turbidity
smiles,measurement,setting,value
"CCCCCCCCc1ccc2cc(CC(N)(CO)CO)ccc2c1 [Compound 79, 2-Amino-2-[(6-octylnaphthalen-2-yl)methyl]propane-1,3-diol]","Average inhibition %, biofilms viability",[1]; 25 µM,15.4 ± 3.3%
same,"Average inhibition %, planktonic cells viability",[1]; 25 µM,0.3 ± 0.6%
same,"Average inhibition %, biofilms viability",[1]; 50 µM,23.3 ± 4.3%
same,"Average inhibition %, planktonic cells viability",[1]; 50 µM,0 ± 0%
same,"Average inhibition %, biofilms viability",[1]; 100 µM,28.7 ± 6.3%
same,"Average inhibition %, planktonic cells viability",[1]; 100 µM,23.6 ± 15.5%
same,"Average inhibition %, biofilms viability",[1]; 200 µM,28.8 ± 6.5%
same,"Average inhibition %, planktonic cells viability",[1]; 200 µM,57 ± 23.8%
same,inhibition at 25 µM,[1]; [5],21.5 ± 4.7%
same,inhibition at 25 µM,[1]; [6],16.1 ± 25.9%
same,inhibition at 50 µM,[1]; [5],29.7 ± 10.3%
same,inhibition at 50 µM,[1]; [6],12.4 ± 8.3%
same,inhibition at 100 µM,[1]; [5],36.6 ± 6.4%
same,inhibition at 100 µM,[1]; [6],25.7 ± 16.3%
same,inhibition at 200 µM,[1]; [5],43.1 ± 20.9%
same,inhibition at 200 µM,[1]; [6],31.5 ± 11.1%
same,MIC,"[2]; lowest concentration with no visible growth (>90% inhibition of turbidity and viability of planktonic cells), 18 h, read-out: MIC S. aureus ATCC 25923",10 µM
same,inhibition at 5 µM,"[2]; 5 µM, read-out: Average inhibition %, biofilms biomass",37.5 ± 32.5%
same,inhibition at 5 µM,"[2]; 5 µM, read-out: Average inhibition %, planktonic cells turbidity",15.2 ± 17.2%
same,inhibition at 10 µM,[2]; [7],91.3 ± 5.8%
same,inhibition at 10 µM,[2]; [8],98.7 ± 0.9%
same,inhibition at 15 µM,[2]; [9],92.1 ± 4.9%
same,inhibition at 15 µM,[2]; [10],98.7 ± 1%
same,inhibition at 25 µM,[2]; [11],92.5 ± 4.2%
same,inhibition at 25 µM,[2]; [12],98.5 ± 1%
same,MIC,[2]; read-out: MIC (S. aureus),10 µM
same,"Average inhibition %, biofilms viability",[2]; 5 µM,28 ± 2.7%
same,"Average inhibition %, planktonic cells viability",[2]; 5 µM,26.3 ± 24.3%
same,"Average inhibition %, biofilms viability",[2]; 10 µM,98.1 ± 0.5%
same,"Average inhibition %, planktonic cells viability",[2]; 10 µM,99.8 ± 0%
same,"Average inhibition %, biofilms viability",[2]; 15 µM,99.3 ± 0.2%
same,"Average inhibition %, planktonic cells viability",[2]; 15 µM,99.8 ± 0.1%
same,"Average inhibition %, biofilms viability",[2]; 25 µM,99.2 ± 0.3%
same,"Average inhibition %, planktonic cells viability",[2]; 25 µM,99.9 ± 0.2%
same,"Average inhibition %, biofilms viability",[3]; 50 µM,0 ± 0%
same,"Average inhibition %, planktonic cells viability",[3]; 50 µM,3.9 ± 3.6%
same,"Average inhibition %, biofilms viability",[3]; 100 µM,0 ± 0%
same,"Average inhibition %, planktonic cells viability",[3]; 100 µM,1.9 ± 2.3%
same,"Average inhibition %, biofilms viability",[3]; 150 µM,0.5 ± 0.9%
same,"Average inhibition %, planktonic cells viability",[3]; 150 µM,4.2 ± 7.4%
same,"Average inhibition %, biofilms viability",[3]; 200 µM,2.1 ± 3.6%
same,"Average inhibition %, planktonic cells viability",[3]; 200 µM,7.6 ± 13.1%
same,inhibition at 50 µM,[3]; [13],1.2 ± 1.5%
same,inhibition at 50 µM,[3]; [14],23.6 ± 9%
same,inhibition at 100 µM,"[3]; 100 µM, read-out: Average inhibition %, biofilms biomass",3.6 ± 4.7%
same,inhibition at 100 µM,"[3]; 100 µM, read-out: Average inhibition %, planktonic cells turbidity",23 ± 3.8%
same,inhibition at 150 µM,"[3]; 150 µM, read-out: Average inhibition %, biofilms biomass",6.1 ± 5.3%
same,inhibition at 150 µM,"[3]; 150 µM, read-out: Average inhibition %, planktonic cells turbidity",28 ± 2.4%
same,inhibition at 200 µM,"[3]; 200 µM, read-out: Average inhibition %, biofilms biomass",0%
same,inhibition at 200 µM,"[3]; 200 µM, read-out: Average inhibition %, planktonic cells turbidity",25 ± 2.8%
same,MIC P. aeruginosa ATCC 9027,"[3]; pre-exposure, Inactive = no activity up to 200 μM, > = some inhibition but no MIC reached",Inactive
same,"Average inhibition %, biofilms viability",[4]; 10 µM,0.3 ± 0.6%
same,"Average inhibition %, planktonic cells viability",[4]; 10 µM,4.7 ± 4.7%
same,"Average inhibition %, biofilms viability",[4]; 15 µM,0.7 ± 0.6%
same,"Average inhibition %, planktonic cells viability",[4]; 15 µM,4.2 ± 4.8%
same,"Average inhibition %, biofilms viability",[4]; 25 µM,1.2 ± 1.5%
same,"Average inhibition %, planktonic cells viability",[4]; 25 µM,0 ± 0%
same,"Average inhibition %, biofilms viability",[4]; 50 µM,6.5 ± 6.4%
same,"Average inhibition %, planktonic cells viability",[4]; 50 µM,0 ± 0%
same,inhibition at 10 µM,[4]; [7],1.7 ± 3%
same,inhibition at 10 µM,[4]; [8],0%
same,inhibition at 15 µM,[4]; [9],3.3 ± 5.7%
same,inhibition at 15 µM,[4]; [10],0%
same,inhibition at 25 µM,[4]; [11],0.2 ± 0.4%
same,inhibition at 25 µM,[4]; [12],0%
same,inhibition at 50 µM,[4]; [13],3.3 ± 5.1%
same,inhibition at 50 µM,[4]; [14],0.3 ± 0.6%
same,MIC A. baumannii NCTC 13423,"[4]; pre-exposure, Inactive = no activity up to 50 μM, > = some inhibition but no MIC reached",Inactive
